Measured values: patent US20230131427A1, “FUNGICIDAL COMPOSITIONS” (SYNGENTA CROP PROTECTION AG, priority 2020, published 2023)
Where two headings read alike, the source gives them in different places.

Experiments:
Septoria glycines = assay: Example B2: mixtures, preventative activity against Septoria glycines (brown spot), liquid culture; assay type: cell-based; conditions: component B alone; for inhibition at 0.1 ppm / inhibition at 0.3 ppm: Septoria glycines; for inhibition at 0.1 ppm: read-out: Activity (%) B
Excerpt: (§1) This occurs whenever the action of an active ingredient combination is greater than the sum of the actions of the individual components. The action to be expected E for a given active ingredient combination obeys the so-called COLBY formula and can be calculated as follows (COLBY, S. R. “Calculating synergistic and antagonistic responses of herbicide combination”. Weeds, Vol. 15, pages 20-22; 1967):
(§2) If the action actually observed (O) is greater than the expected action (E), then the action of the combination is super-additive, i.e. there is a synergistic effect. In mathematical terms, synergism corresponds to a positive value for the difference of (O-E). In the case of purely complementary addition of activities (expected activity), said difference (O-E) is zero. A negative value of said difference (O-E) signals a loss of activity compared to the expected activity.
Conidia of the fungus harvested from a fresh culture grown on artificial media, were directly mixed into nutrient broth (PDB potato dextrose broth). A DMSO solution of the test compounds was placed into a microtiter plate (96-well format) and the nutrient broth containing the fungal spores was added to it.
(§3) Fungicidal activity was evaluated on a 100-0 scale (100=no disease growth; 0=well completely covered by mycelium).

Septoria tritici = assay: Example B3: mixtures, preventative activity against Septoria tritici (leaf blotch), liquid culture; assay type: cell-based; conditions: for inhibition at 0.1 ppm / inhibition at 0.3 ppm: Zymoseptoria tritici, read-out: Activity (%) B
Excerpt: as §1, §2
(§4) Conidia of the fungus from cryogenic storage were directly mixed into nutrient broth (PDB potato dextrose broth). A DMSO solution of the test compounds was placed into a microtiter plate (96-well format) and the nutrient broth containing the fungal spores was added to it.
as §3

[1] = test system: Glomerella lagenarium syn. Colletotrichum lagenarium; assay: Example B1: mixtures, preventative activity against Glomerella lagenarium syn. Colletotrichum lagenarium, liquid culture; assay type: cell-based; conditions: for inhibition at 0.1 ppm / inhibition at 0.3 ppm: Colletotrichum orbiculare, read-out: Activity (%) B
Excerpt: as §1, §2, §4, §3

Phakopsora pachyrhizi = assay: Example B5: preventative activity against Phakopsora pachyrhizi (soybean rust), whole soybean plants sprayed, leaf disks inoculated; assay type: in vivo
Description: Whole soybean plants are treated with the recited active ingredients 4 weeks after planting. 1 day after spraying leaf disks are cut from the first trifoliate leaf. Five repetitions at each rate are conducted. The leaf disks are inoculated with Phakopsora pachyrhizi (Asian soybean rust) one day after treatment.
Evaluation of the leaf disks is conducted 11 to 14 days after inoculation and the activity is derived from the relation of the treated vs untreated, infested check (100=no disease, no damage to the leaf, 0=high infestation, leaf damaged heavily). The rates of the active ingredients used are given in the tables as g active ingredient (a.i.)/ha.

[2] = test system: Mycosphaerella arachidis syn. Cercospora arachidicola; assay: Example B4: mixtures, preventative activity against Mycosphaerella arachidis syn. Cercospora arachidicola (brown leaf spot of peanut), liquid culture; assay type: cell-based; conditions: component B alone; for inhibition at 0.1 ppm / inhibition at 0.3 ppm: Mycosphaerella arachidis
Excerpt: as §1, §2, §4
Cercospora arachidicola (Brown leaf spot of peanut). Fungicidal activity was evaluated on a 100-0 scale (100=no disease growth; 0=well completely covered by mycelium).

[3] = component B alone, 0.1 ppm, 100-0 scale
[4] = component B alone, 0.3 ppm, 100-0 scale
[5] = Phakopsora pachyrhizi, foliar, read-out: Observed Activity (% of untreated) against Phakopsora pachyrhizi
[6] = Phakopsora pachyrhizi, foliar, active ingredient alone, read-out: Observed Activity (%) (% of untreated)
[7] = Phakopsora pachyrhizi, foliar, applied alone, read-out: Observed Activity (% of untreated) against Phakopsora pachyrhizi
[8] = active ingredient alone, 2.25 g/ha
[9] = active ingredient alone, 4.5 g/ha
[10] = active ingredient alone, 9 g/ha
[11] = Phakopsora pachyrhizi, foliar, applied alone, read-out: Observed Activity (%) (% of untreated) against Phakopsora pachyrhizi
[12] = 72 h, component B alone, 0.1 ppm, 72 hrs, 100=no disease growth
[13] = 72 h, component B alone, 0.3 ppm, 72 hrs

`Cc1nc2c(F)c(F)ccc2cc1Oc1cccc(F)c1C(C)(C)O` [ipflufenoquin] was tested, and the “Activity (%) B” value (Septoria glycines; 0.1 ppm, 100-0 scale) was 0%, the “Activity (%) B” value (Septoria glycines; 0.3 ppm, 100-0 scale) was 0% and the “Activity (%) B” value (Septoria tritici; [3]) was 0%. The “Activity (%) B” value (Septoria tritici; [4]) was 20%, the “Activity (%) B” value ([1]; component B alone, 0.1 ppm) was 20% and the “Activity (%) B” value ([1]; component B alone, 0.3 ppm) was 100%.
With `N#Cc1c[nH]cc1-c1cccc2c1OC(F)(F)O2` [fludioxonil, reference compound] the inhibition at 0.1 ppm (Septoria tritici; 72 h) was 0%, the inhibition at 0.3 ppm (Septoria tritici; 72 h) was 20% and the inhibition at 0.1 ppm (Septoria tritici) was 0%. The inhibition at 0.3 ppm (Septoria tritici) was 20%, the inhibition at 450 g/ha (Phakopsora pachyrhizi; [5]) was 0% and the inhibition at 900 g/ha (Phakopsora pachyrhizi; [5]) was 1%. It also gave an inhibition at 0.1 ppm [1] of 0% and an inhibition at 0.3 ppm [1] of 0%.
`CON=C(C(=O)OC)c1ccccc1CON=C(C)c1cccc(C(F)(F)F)c1` [trifloxystrobin, reference compound] showed an inhibition at 0.1 ppm (Septoria glycines; 0.1 ppm, 100-0 scale) of 90%, an inhibition at 0.3 ppm (Septoria glycines; 0.3 ppm, 100-0 scale) of 100% and an inhibition at 2.25 g/ha (Phakopsora pachyrhizi; Phakopsora pachyrhizi, foliar, applied alone, 2.25 g/ha, read-out: Observed Activity (% of untreated) against Phakopsora pachyrhizi) of 0%. For the same molecule, the inhibition at 4.5 g/ha (Phakopsora pachyrhizi; Phakopsora pachyrhizi, foliar, applied alone, 4.5 g/ha, read-out: Observed Activity (% of untreated) against Phakopsora pachyrhizi) was 3%, the inhibition at 9 g/ha (Phakopsora pachyrhizi; Phakopsora pachyrhizi, foliar, applied alone, 9 g/ha, read-out: Observed Activity (% of untreated) against Phakopsora pachyrhizi) was 0% and the inhibition at 18 g/ha (Phakopsora pachyrhizi; Phakopsora pachyrhizi, foliar, applied alone, 18 g/ha, read-out: Observed Activity (% of untreated) against Phakopsora pachyrhizi) was 19%. The inhibition at 0.1 ppm ([1]; component B alone, 0.1 ppm) was 90% and the inhibition at 0.3 ppm ([1]; component B alone, 0.3 ppm) was 90%.
For `OC(Cc1ccccc1Cl)(Cn1nc[nH]c1=S)C1(Cl)CC1` (centres unmarked) [proth ioconazole, prothioconazole, reference compound], the inhibition at 0.1 ppm (Septoria glycines; 0.1 ppm, 100-0 scale) was 90%, the inhibition at 0.3 ppm (Septoria glycines; 0.3 ppm, 100-0 scale) was 90% and the “Activity (%) B” value (Septoria glycines; 0.3 ppm) was 50%. The inhibition at 22.5 g/ha (Phakopsora pachyrhizi; [6]) was 47%, the inhibition at 45 g/ha (Phakopsora pachyrhizi; [6]) was 80% and the inhibition at 90 g/ha (Phakopsora pachyrhizi; [6]) was 94%. For the same molecule, the inhibition at 22.5 g/ha (Phakopsora pachyrhizi; [7]) was 47%, the inhibition at 45 g/ha (Phakopsora pachyrhizi; [7]) was 80% and the inhibition at 90 g/ha (Phakopsora pachyrhizi; [7]) was 94%. The inhibition at 0.3 ppm ([1]; component B alone, 0.3 ppm) was 50% and the “Activity (%) B” value ([1]; component B alone, 0.1 ppm) was 20%.
For `Cn1cc(C(=O)Nc2cccc3c2[C@@H]2CC[C@H]3C2=C(Cl)Cl)c(C(F)F)n1` (racemic) [benzovindiflupyr, reference compound], the “Activity (%) B” value (Septoria tritici; [3]) was 50%, the “Activity (%) B” value (Septoria tritici; [4]) was 70% and the “Observed Activity (%) (% of untreated)” value (Phakopsora pachyrhizi; [8]) was 34%. For the same molecule, the “Observed Activity (%) (% of untreated)” value (Phakopsora pachyrhizi; [9]) was 80%, the “Observed Activity (%) (% of untreated)” value (Phakopsora pachyrhizi; [10]) was 99% and the “Observed Activity (% of untreated) against Phakopsora pachyrhizi” value (shortened to “Observed Activity (% of untreated)”) (Phakopsora pachyrhizi; applied alone, 2.25 g/ha) was 34%. The “Observed Activity (% of untreated)” value (Phakopsora pachyrhizi; applied alone, 4.5 g/ha) was 80%, the “Observed Activity (% of untreated)” value (Phakopsora pachyrhizi; applied alone, 9 g/ha) was 99% and the “Activity (%) B” value ([1]; component B alone, 0.1 ppm) was 50%. The “Activity (%) B” value ([1]; component B alone, 0.3 ppm) was 100%.
`Cc1ccc(C(=O)OCc2ccc(Oc3ccccc3)cc2)c(N)n1` [aminopyrifen] was tested, and the “Activity (%) B” value (Septoria glycines; 0.1 ppm) was 0%, the “Activity (%) B” value (Septoria glycines; 0.1 ppm, 100-0 scale) was 0% and the “Activity (%) B” value (Septoria glycines; 0.3 ppm, 100-0 scale) was 20%. For the same molecule, the “Activity (%) B” value ([2]; 0.1 ppm) was 90%, the “Activity (%) B” value ([2]; 0.3 ppm) was 100% and the “Activity (%) B” value ([1]; component B alone, 0.1 ppm) was 20%. For the same molecule, the “Activity (%) B” value ([1]; component B alone, 0.3 ppm) was 50%.
In the case of `Cc1cccc(-n2nnn(C)c2=O)c1COc1ccn(-c2ccc(Cl)cc2)n1` [metyltetraprole, reference compound], the “Observed Activity (%) (% of untreated)” value (Phakopsora pachyrhizi; [8]) is reported as 1%, the “Observed Activity (%) (% of untreated)” value (Phakopsora pachyrhizi; [9]) is reported as 0% and the “Observed Activity (%) (% of untreated)” value (Phakopsora pachyrhizi; [10]) is reported as 7%. The “Observed Activity (%) (% of untreated)” value (Phakopsora pachyrhizi; active ingredient alone, 18 g/ha) was 67%, the “Observed Activity (% of untreated)” value (Phakopsora pachyrhizi; applied alone, 2.25 g/ha) was 1% and the “Observed Activity (% of untreated)” value (Phakopsora pachyrhizi; applied alone, 4.5 g/ha) was 0%. For the same molecule, the “Observed Activity (% of untreated)” value (Phakopsora pachyrhizi; applied alone, 9 g/ha) was 7%, the “Observed Activity (% of untreated)” value (Phakopsora pachyrhizi; applied alone, 18 g/ha) was 67% and the “Activity (%) B” value ([1]; component B alone, 0.1 ppm) was 90%. The “Activity (%) B” value ([1]; component B alone, 0.3 ppm) was 90%.
For `COc1ccnc(C(=O)N[C@@H](C)C(=O)O[C@@H](C)C(c2ccc(F)cc2)c2ccc(F)cc2)c1OC(C)=O` [florylpicoxamid, reference compound], the “Activity (%) B” value (Septoria glycines; 0.01 ppm) was 0%, the “Activity (%) B” value (Septoria glycines; 0.01 ppm, 100-0 scale) was 0% and the “Activity (%) B” value (Septoria glycines; 0.02 ppm) was 20%. For the same molecule, the “Activity (%) B” value (Septoria glycines; 0.02 ppm, 100-0 scale) was 20%, the “Activity (%) B” value (Septoria tritici; component B alone, 0.01 ppm, 100-0 scale) was 0% and the “Activity (%) B” value (Septoria tritici; component B alone, 0.01 ppm, 72 hrs) was 0%. For the same molecule, the “Activity (%) B” value (Septoria tritici; component B alone, 0.02 ppm, 100-0 scale) was 20%, the “Activity (%) B” value (Septoria tritici; component B alone, 0.02 ppm, 72 hrs) was 20% and the “Activity (%) B” value ([2]; 0.01 ppm) was 70%. The “Activity (%) B” value ([2]; 0.02 ppm) was 90%.
In the case of `CC(C)c1ccc(Cl)cc1CN(C(=O)c1c(C(F)F)nn(C)c1F)C1CC1` [isoflucypram], the “Activity (%) B” value ([2]; 0.1 ppm) is reported as 90% and the “Activity (%) B” value ([2]; 0.3 ppm) is reported as 100%.
`CCOC(=O)C1CC(=O)C(=C(O)C2CC2)C(=O)C1` (centres unmarked) [trinexapac-ethyl, reference compound] gave an inhibition at 22.5 g/ha (Phakopsora pachyrhizi; [7]) of 0%, an inhibition at 22.5 g/ha (Phakopsora pachyrhizi; [11]) of 0% and an inhibition at 45 g/ha (Phakopsora pachyrhizi; [7]) of 0%. The inhibition at 45 g/ha (Phakopsora pachyrhizi; [11]) was 0%, the inhibition at 0.1 ppm ([1]; component B alone, 0.1 ppm) was 0% and the inhibition at 0.3 ppm ([1]; component B alone, 0.3 ppm) was 0%.
Molecule `O=C(NCCc1ncc(C(F)(F)F)cc1Cl)c1ccccc1C(F)(F)F` [fluopyram] has an inhibition at 0.1 ppm (Septoria tritici; [12]) of 0%, an inhibition at 0.3 ppm (Septoria tritici; [13]) of 50% and an inhibition at 0.1 ppm ([2]; 0.1 ppm) of 0%. For the same molecule, the inhibition at 0.3 ppm ([2]; 0.3 ppm) was 90%.
For `N#Cc1c(Cl)c(Cl)c(Cl)c(C#N)c1Cl` [chlorothalonil, reference compound], the inhibition at 0.1 ppm (Septoria tritici; [12]) was 20%, the inhibition at 0.3 ppm (Septoria tritici; [13]) was 70% and the inhibition at 0.3 ppm (Septoria tritici; [4]) was 70%. The inhibition at 0.1 ppm ([2]; 0.1 ppm) was 0%, the inhibition at 0.3 ppm ([2]; 0.3 ppm) was 90% and the inhibition at 0.1 ppm ([1]; component B alone, 0.1 ppm) was 0%. The inhibition at 0.3 ppm ([1]; component B alone, 0.3 ppm) was 20%.
`O=C1c2ccccc2C(=O)N1SC(Cl)(Cl)Cl` [folpet] gave an inhibition at 0.1 ppm (Septoria tritici; [3]) of 0%, an inhibition at 0.3 ppm (Septoria tritici; [4]) of 0% and an inhibition at 0.1 ppm ([2]; 0.1 ppm) of 20%.
